Test results: patent US20250115598A1 (Anaxis Pharma Pty Ltd, priority 2021, published 2025)

Assays:
endogenous MLKL in U937 = endogenous MLKL in U937 (Homo sapiens (Human), UniProt Q8NB16); test: Degradation assay: endogenous MLKL in U937 (western blot); conditions: U937, 24 h incubation, read-out: Degradation of endogenous MLKL in U937 (DC50 cell-based assay)
Method: Degradation Assay: Screening Compounds Procedure to Evaluate the Activity of Compounds in Degrading Endogenous MLKL in Human and Mouse Cell
The mouse dermal fibroblast (MDF) cell line was seeded the day before the experiment in a 24-well plate at a cell density of […] per well in a volume of 0.5 mL per well and left to attach overnight. The human monocyte cell line (U937) was seeded on the day of the experiment in a 24-well plate at a cell density of […] per well in a volume of 0.5 mL per well.
The compound was diluted in DMSO with a starting concentration of 10 mM and titrated stepwise with a dilution of 1:5. 0.5 μL of the compound dilution was added to the appropriate well to achieve a final concentration of 10; 2; 0.4; 0.08 and 0.016 μM. A DMSO only well was included as control.
The cells were incubated for 24 h in the presence of the compound at 37° C. and 10% CO2.
After the 24 h incubation period, the medium was removed and cells washed with 0.5 mL PBS. The cells were then lysed directly in 60 μL of 1×SDS gel loading buffer.
The cell lysate was heat-denatured at […] for 10 min. 10 μL of lysate per well were run on 18-well 4-15% Criterion TGX stain free gels (BIO-RAD). The proteins were then transferred onto nitrocellulose membrane with a wet transfer protocol in the Criterion Blotter (BIO-RAD).
Membranes were blocked with 5% skim milk in TBST. Primary antibody against MLKL (clone 3H1, MABC604 Merck) was used at 1:2000 dilution in TBST with 1% BSA and left shaking over night at 4° C. After washes with TBST, the membranes were incubated with goat anti-rat IgG HRP-conjugated antibody (Southern Biotech) in 1% skim milk TBST at 1:10000 dilution for 1 h at room temperature. After TBST washes the bands were imaged on the ChemiDoc MP Imaging System (BIO-RAD) with Immobilion Western Chemiluminescent HRP Substrate Forte (Millipore). The loading control GAPDH was probed for with rabbit anti-GAPDH (CST 14C10) at 1:2000 dilution in 1% BSA TBST over night at 4° C. TBST washes were followed by incubation with goat anti-rabbit IgG HRP-conjugated antibody (Southern Biotech) in 1% skim milk TBST at 1:10000 dilution for 1 h at room temperature followed by TBST washes. The signal was detected as described above.
The band intensity was measured in the ImageLab Software (BIO-RAD) and the MLKL values adjusted for loading with GAPDH. The percentage of degradation was calculated by normalizing the compound treated values to the DMSO only control.

endogenous MLKL in MDF = endogenous MLKL in MDF (Mus musculus (Mouse), UniProt Q9D2Y4); test: Degradation assay: endogenous MLKL in MDF (western blot); conditions: MDF cells, 24 h incubation with compound, MLKL adjusted for loading with GAPDH, normalized to DMSO only control, read-out: Degradation of endogenous MLKL in MDF (DC50 cell-based assay)
Chain of endogenous MLKL in MDF (Q9D2Y4 whole entry): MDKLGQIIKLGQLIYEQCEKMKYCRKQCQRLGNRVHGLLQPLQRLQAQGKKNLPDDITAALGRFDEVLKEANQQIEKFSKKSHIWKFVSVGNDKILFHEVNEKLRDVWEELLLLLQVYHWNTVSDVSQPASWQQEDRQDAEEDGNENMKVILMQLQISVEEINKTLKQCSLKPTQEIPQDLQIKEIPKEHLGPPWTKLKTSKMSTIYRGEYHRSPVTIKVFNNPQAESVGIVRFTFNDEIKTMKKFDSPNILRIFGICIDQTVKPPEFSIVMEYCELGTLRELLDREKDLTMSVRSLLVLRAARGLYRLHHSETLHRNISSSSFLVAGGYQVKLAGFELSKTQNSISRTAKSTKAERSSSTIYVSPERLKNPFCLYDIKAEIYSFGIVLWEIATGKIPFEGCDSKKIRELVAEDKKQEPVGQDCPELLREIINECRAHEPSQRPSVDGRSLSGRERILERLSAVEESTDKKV
Summary of the method: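 MDF (seeded the day before) or U937 cells were treated 24 h at 37 °C, 10% CO2 with compound at 10, 2, 0.4, 0.08 and 0.016 μM final. Endogenous MLKL was quantified by western blot (anti-MLKL 3H1), normalized to GAPDH. Percent degradation was taken relative to DMSO control.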

human MLKL (full length) = human MLKL (full length) (Homo sapiens (Human), UniProt Q8NB16); test: KINOMEscan binding assay, human MLKL (full length); conditions: hMLKL, Table 25; read-out: MLKL (KD)
Chain of human MLKL (full length) (Q8NB16 whole entry, the tested form may be a part): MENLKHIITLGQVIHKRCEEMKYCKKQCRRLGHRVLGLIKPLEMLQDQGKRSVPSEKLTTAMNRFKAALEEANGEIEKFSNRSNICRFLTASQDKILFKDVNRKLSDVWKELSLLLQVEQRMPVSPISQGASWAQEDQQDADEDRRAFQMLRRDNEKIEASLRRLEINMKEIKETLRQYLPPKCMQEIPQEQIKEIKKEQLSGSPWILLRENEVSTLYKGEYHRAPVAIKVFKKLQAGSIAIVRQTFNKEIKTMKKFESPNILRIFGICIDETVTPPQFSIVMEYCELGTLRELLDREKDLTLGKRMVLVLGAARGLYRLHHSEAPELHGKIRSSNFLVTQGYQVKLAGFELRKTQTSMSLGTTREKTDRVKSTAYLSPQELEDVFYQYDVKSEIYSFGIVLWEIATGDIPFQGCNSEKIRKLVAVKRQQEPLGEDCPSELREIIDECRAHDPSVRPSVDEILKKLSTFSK
Summary of the method: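 Competition binding format with qPCR detection. Kinases, either phage-fused from E. coli lysates or HEK-293-derived with a DNA tag, bound ligand-coated beads in the presence of compound (11 points, 3-fold steps, 1% DMSO, top usually 30,000 nM). Kd from nonlinear Hill fitting with slope −1.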

[1] = tested on: Immortalised Mouse Dermal Fibroblasts (MDFs); test: Cellular assay: inhibition of TSI induced necroptosis, CellTitre-Glo viability; conditions: Mus musculus, Fibroblast; MDF, 3 hours TSI cocktail, Table 27; read-out: Inhibition of TSI-induced necroptosis (IC50 cell-based assay) in MDF
Summary of the method: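 Immortalised mouse dermal fibroblasts (2200 cells/well) pretreated 30 min with compound, 10-point 1:3 series from 36 μM, 0.3% DMSO. Then 3 h at 37° C. with TNF (100 ng/ml), Smac mimetic (500 nM) and IDN-6556 (10 μM). CellTiter-Glo luminescence normalised to DMSO (100%) and DMSO+TSI (0%); IC50 from 4-parameter logistic fit.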

Chain of endogenous MLKL in U937 (Q8NB16 whole entry): as the sequence (Q8NB16 whole entry, the tested form may be a part) above

| SMILES | DC50 (endogenous MLKL in U937) [nM] | DC50 (endogenous MLKL in MDF) [nM] | Kd (human MLKL (full length)) [nM] | IC50 [1] [nM] |
| --- | --- | --- | --- | --- |
| Cc1ncsc1-c1ccc(CNC(=O)[C@@H]2C[C@@H](O)CN2C(=O)[C@@H](NC(=O)COCCCCn2cc(-c3cnc(N)c4c(-c5ccc(NS(=O)(=O)C(F)F)c(O[C@@H](C)c6ccc(F)cc6)c5)nn(C)c34)cn2)C(C)(C)C)cc1 [Compound 1056, (2S,4R)-1-[(2S)-2-{2-[4-(4-{4-amino-3-[4-(difluoromethanesulfonamido)-3-[(1S)-1-(4-fluorophenyl)ethoxy]phenyl]-1-methyl-1H-pyrazolo[4,3-c]pyridin-7-yl}-1H-pyrazol-1-yl)butoxy]acetamido}-3,3-dimethylbutanoyl]-4-hydroxy-N-{[4-(4-methyl-1,3-thiazol-5-yl)phenyl]methyl}pyrrolidine-2-carboxamide] | < 1000 | 1000 to 10000 | 10 to 1000 |  |
| CCS(=O)(=O)Nc1ccc(-c2nn(C)c3c(-c4cnn(CCCCCCCOc5cccc6c5C(=O)N(C5CCC(=O)NC5=O)C6=O)c4)cnc(N)c23)cc1F (stereo not drawn) [Compound 1059, N-(4-{4-amino-7-[1-(7-{[2-(2,6-dioxopiperidin-3-yl)-1,3-dioxo-2,3-dihydro-1H-isoindol-4-yl]oxy}heptyl)-1H-pyrazol-4-yl]-1-methyl-1H-pyrazolo[4,3-c]pyridin-3-yl}-2-fluorophenyl)ethane-1-sulfonamide] | < 1000 | < 1000 | < 10 |  |
| Cc1ncsc1-c1ccc(C(COCC(=O)N2CCC(n3cc(-c4cnc(N)c5c(-c6ccc(NS(=O)(=O)C(F)F)c(O[C@@H](C)c7ccc(F)cc7)c6)nn(C)c45)cn3)CC2)NC(=O)[C@@H]2C[C@@H](O)CN2C(=O)[C@@H](NC(=O)C2(F)CC2)C(C)(C)C)cc1 (stereo partly drawn) [Compound 1104, (2S,4R)—N-(2-{2-[4-(4-{4-amino-3-[4-(difluoromethanesulfonamido)-3-[(1 S)-1-(4-fluorophenyl)ethoxy]phenyl]-1-methyl-1H-pyrazolo[4,3-c]pyridin-7-yl}-1H-pyrazol-1-yl)piperidin-1-yl]-2-oxoethoxy}-1-[4-(4-methyl-1,3-thiazol-5-yl)phenyl]ethyl)-1-[(2S)-2-[(1-fluorocyclopropyl)formamido]-3,3-dimethylbutanoyl]-4-hydroxypyrrolidine-2-carboxamide] | < 1000 | < 1000 |  | 1000 to 10000 |
| Cn1nc(-c2ccc(NS(=O)(=O)C(F)F)c(F)c2)c2c(N)ncc(-c3cnn(C4CCN(C(=O)[C@H]5C[C@H](Nc6cccc7c6C(=O)N(C6CCC(=O)NC6=O)C7=O)C5)CC4)c3)c21 (stereo partly drawn) [Compound 1114, N-{4-[4-amino-1-methyl-7-(1-{1-[(trans)-3-{[2-(2,6-dioxopiperidin-3-yl)-1,3-dioxo-2,3-dihydro-1H-isoindol-4-yl]amino}cyclobutanecarbonyl]piperidin-4-yl}-1H-pyrazol-4-yl)-1H-pyrazolo[4,3-c]pyridin-3-yl]-2-fluorophenyl}-1,1-difluoromethanesulfonamide] | < 1000 | < 1000 | < 10 |  |
| C[C@H](Oc1cc(-c2nn(C)c3c(-c4cnn(C5CCN(C(=O)N6CC(Nc7cccc8c7C(=O)N(C7CCC(=O)NC7=O)C8=O)C6)CC5)c4)cnc(N)c23)ccc1NS(=O)(=O)C(F)F)c1ccc(F)cc1 (stereo partly drawn) [Compound 1124, N-[4-(4-amino-7-{1-[1-(3-{[2-(2,6-dioxopiperidin-3-yl)-1,3-dioxo-2,3-dihydro-1H-isoindol-4-yl]amino}azetidine-1-carbonyl)piperidin-4-yl]-1H-pyrazol-4-yl}-1-methyl-1H-pyrazolo[4,3-c]pyridin-3-yl}-2-[(1S)-1-(4-fluorophenyl)ethoxy]phenyl]-1,1-difluoromethanesulfonamide] | < 1000 | < 1000 |  | < 1000 |
